Measured values taken from patent publication US20080058352A1, “Fungicidal Mixtures” (priority 2004, published 2008).

System: Pyrenophora teres
Assay: activity against net blotch of barley caused by Pyrenophora teres, 5 day protective application
Format: in vivo, Pyrenophora [syn. Drechslera] teres on barley seedlings
Details: individual active compound, untreated control 90% infection
Description: The active compounds, separately or jointly, were prepared as a stock solution comprising 25 mg of active compound which was made up to 10 ml using a mixture of acetone and/or DMSO and the emulsifier Uniperol® EL (wetting agent having an emulsifying and dispersing action based on ethoxylated alkylphenols) in a ratio by volume of solvent/emulsifier of 99:1. The mixture was then made up to 100 ml with water. This stock solution was diluted with the solvent/emulsifier/water mixture described to give the concentration of active compound stated below. Alternatively, the active compounds were employed as a commercial finished formulation and diluted with water to the stated concentration of active compound.
Use example—activity against net blotch of barley caused by Pyrenophora teres, 5 day protective application.
Leaves of potted barley seedlings were sprayed to runoff point with an aqueous suspension having the concentration of active compound stated below. 5 days after the application, the test plants were inoculated with an aqueous spore suspension of Pyrenophora [syn. Drechslera] teres, the net blotch pathogen. The test plants were then placed in a greenhouse at temperatures between 20 and 24° C. and 95 to 100% relative atmospheric humidity. After 6 days, the extent of the development of the disease was determined visually in % infection of the total leaf area.
The visually determined percentages of infected leaf areas were converted into efficacies in % of the untreated control:
The efficacy (E) is calculated as follows using Abbot's formula:
E=(1−α/β)·100 • α corresponds to the fungal infection of the treated plants in % and • β corresponds to the fungal infection of the untreated (control) plants in %
An efficacy of 0 means that the infection level of the treated plants corresponds to that of the untreated control plants; an efficacy of 100 means that the treated plants were not infected.
The expected efficacies of mixtures of active compounds were determined using Colby's formula (Colby, S. R. “Calculating synergistic and antagonistic responses of herbicide combinations”, Weeds, 15, 20-22, 1967) and compared with the observed efficacies.
E=x+y−x·y/100 • E expected efficacy, expressed in % of the untreated control, when the using the mixture of the active compounds A and B at the concentrations a and b • x efficacy, expressed in % of the untreated control, when using the active compound A at the concentration a • y efficacy, expressed in % of the untreated control, when using the active compound B at the concentration b

Structure (SMILES) | Efficacy in % of the untreated control (0.25 ppm in the spray liquor) | Efficacy in % of the untreated control (1 ppm in the spray liquor) | Efficacy in % of the untreated control (4 ppm in the spray liquor)
CC(C)CC(C)c1sccc1NC(=O)c1cn(C)nc1C(F)(F)F (stereo not drawn) [IIA.11, penthiopyrad] | 0% | 33% | 56%
CC1CCN(c2c(-c3c(F)cc(F)cc3F)c(Cl)nc3ncnn23)CC1 [I, 5-chloro-7-(4-methylpiperidin-1-yl)-6-(2,4,6-trifluorophenyl)[1,2,4]triazolo[1,5-a]pyrimidine] | 0% | 0% | 33%
